According to ChEMBL document CHEMBL4616595, “Targeted suppression of metastasis regulatory transcription factor SOX2 in various cancer cell lines using a sequence-specific designer pyrrole-imidazole polyamide” (Bioorg Med Chem, 2020):
The source made the active and inactive calls.

Legend:
[1] = test system: SOX2 promoter DNA; experiment: Binding affinity to SOX2 promoter 5'-CTTTGTT-3' DNA in human SW620 cells assessed as downregulation beta-catenin mRNA expression incubated for 48 hrs by qRT-PCR analysis; type: cell-based; settings: SW-620
[2] = test system: SOX2 promoter DNA; experiment: Binding affinity to SOX2 promoter 5'-CTTTGTT-3' DNA in human ES2 cells assessed as reduction in SOX2 mRNA expression incubated for 48 hrs by qRT-PCR analysis; type: cell-based
[3] = test system: SOX2 promoter DNA; experiment: Binding affinity to SOX2 promoter 5'-CTTTGTT-3' DNA in human MCF7 cells assessed as reduction in SOX2 protein level incubated for 48 hrs by immunostaining based FACS analysis; type: cell-based
[4] = test system: SOX2 promoter DNA; experiment: Binding affinity to SOX2 promoter 5'-CTTTGTT-3' DNA in human SW620 cells assessed as down regulation of VIM gene expression at 2 uM incubated for 48 hrs by Cy3-labelled cRNA-based microarray analysis; type: cell-based; settings: SW-620
[5] = test system: SOX2 promoter DNA; experiment: Binding affinity to SOX2 promoter 5'-CTTTGTT-3' DNA in human SW620 cells assessed as down regulation of CDH2 gene expression at 2 uM incubated for 48 hrs by Cy3-labelled cRNA-based microarray analysis; type: cell-based; settings: SW-620
[6] = test system: SOX2 promoter DNA; experiment: Binding affinity to SOX2 promoter 5'-CTTTGTT-3' DNA in human SW620 cells assessed as down regulation of […] mRNA expression at 2 uM incubated for 48 hrs by qRT-PCR analysis; type: cell-based; settings: SW-620
[7] = test system: SOX2 promoter DNA; experiment: Binding affinity to SOX2 promoter 5'-CTTTGTT-3' DNA in human SW620 cells assessed as down regulation of DOCK1 mRNA expression at 2 uM incubated for 48 hrs by qRT-PCR analysis; type: cell-based; settings: SW-620
[8] = test system: SOX2 promoter DNA; experiment: Binding affinity to SOX2 promoter 5'-CTTTGTT-3' DNA in human SW620 cells assessed as downregulation DVL3 mRNA expression incubated for 48 hrs by qRT-PCR analysis; type: cell-based; settings: SW-620
[9] = test system: SOX2 promoter DNA; experiment: Binding affinity to SOX2 promoter 5'-CTTTGTT-3' DNA in human SW620 cells assessed as upregulation of GSK3-beta mRNA expression incubated for 48 hrs by qRT-PCR analysis; type: cell-based; settings: SW-620
[10] = test system: SW-620; experiment: Antiproliferative activity against human SW620 cells assessed as inhibition of cell proliferation incubated for 48 hrs by [3H]thymidine incorporation based scintillation counting method; type: functional
[11] = test system: MKN-45; experiment: Antiproliferative activity against human MKN45 cells assessed as inhibition of cell proliferation incubated for 48 hrs by [3H]thymidine incorporation based scintillation counting method; type: functional
[12] = test system: U2OS; experiment: Cell cycle arrest in human U2OS cells assessed as increase in accumulation at sub-G1/G1 phase at 2 uM to 5 uM after 48 hrs by propidium iodide staining based flow cytometry analysis; type: functional
[13] = test system: SW-620; experiment: Cell cycle arrest in human SW620 cells assessed as reduction in accumulation at G2/M phase at 2 uM to 5 uM after 48 hrs by propidium iodide staining based flow cytometry analysis; type: functional
[14] = test system: SW-620; experiment: Up regulation of p21cip1 mRNA expression in human SW620 cells incubated for 48 hrs by qRT-PCR analysis; type: functional, cell-based
[15] = test system: SOX2 promoter DNA; experiment: Binding affinity to SOX2 promoter 5'-CTTTGTT-3' DNA in human SW620 cells assessed as reduction in SOX2 protein level by measuring SOX2 level at 2 uM incubated for 48 hrs by immunostaining based FACS analysis (reference value: 55.9%); type: cell-based; design: scale not given: the % may be the effect or the level left; settings: SW-620

CC(=O)Nc1cc(C(=O)Nc2cc(C(=O)Nc3cc(C(=O)NCCC(=O)Nc4cn(C)c(C(=O)Nc5cc(C(=O)NCCCC(=O)Nc6cc(C(=O)Nc7cc(C(=O)NCCC(=O)Nc8cc(C(=O)Nc9cc(C(=O)Nc%10cn(C)c(C(=O)NCCCN(C)C)n%10)n(C)c9)n(C)c8)n(C)c7)n(C)c6)n(C)c5)n4)n(C)c3)n(C)c2)n(C)c1
37.4%: Activity [15]
active: Activity [1] | Activity [2] | Activity [3] Dose-dependent effect | Activity [4] | Activity [5] | Activity [6] | Activity [7] | Activity [8] | Activity [9] | inhibition [10] Dose-dependent effect | inhibition [11] Dose-dependent effect | Activity [12] | Activity [13] | Activity [14]
